In ChEMBL document CHEMBL3286221, “Design and synthesis of novel 1,2,3-triazole derivatives of coronopilin as anti-cancer compounds” (Eur J Med Chem, 2014):

Assays:
[1] = Cytotoxicity against human HCT15 cells after 48 hrs by sulforhodamine B assay; format: functional, cell-based; conditions: HCT-15, 48 h
A549 = assay: Cytotoxicity against human A549 cells after 48 hrs by sulforhodamine B assay; format: functional, cell-based; conditions: A549, 48 h
HeLa = assay: Cytotoxicity against human HeLa cells after 48 hrs by sulforhodamine B assay; format: functional, cell-based
THP-1 = assay: Cytotoxicity against human THP1 cells after 48 hrs by sulforhodamine B assay; format: functional, cell-based; conditions: THP-1, 48 h
MCF7 = assay: Cytotoxicity against human MCF7 cells after 48 hrs by sulforhodamine B assay; format: functional, cell-based; conditions: MCF7, 48 h
PC-3 [2] = assay: Cytotoxicity against human PC3 cells after 48 hrs by sulforhodamine B assay; format: functional, cell-based; conditions: PC-3, 48 h
PC-3 [3] = assay: Cell cycle arrest in human PC3 cells assessed as accumulation at S phase at 5 uM after 24 hrs by propidium iodide staining-based flow cytometric analysis (reference value: 8.5%); format: functional
PC-3 [4] = assay: Cell cycle arrest in human PC3 cells assessed as accumulation at G0/G1 phase at 5 uM after 24 hrs by propidium iodide staining-based flow cytometric analysis (reference value: 68.2%); format: functional
PC-3 [5] = assay: Cell cycle arrest in human PC3 cells assessed as accumulation at M phase at 5 uM after 24 hrs by propidium iodide staining-based flow cytometric analysis (reference value: 3%); format: functional
PC-3 [6] = assay: Cell cycle arrest in human PC3 cells assessed as accumulation at sub-G1 phase at 5 uM after 24 hrs by propidium iodide staining-based flow cytometric analysis (reference value: 13.1%); format: functional
PC-3 [7] = assay: Cell cycle arrest in human PC3 cells assessed as accumulation at G0/G1 phase at 10 uM after 24 hrs by propidium iodide staining-based flow cytometric analysis (reference value: 68.2%); format: functional
[8] = target: Transcription factor p65 (Homo sapiens) (UniProt Q04206); assay: Inhibition of NFkappaB p65 binding to consensus DNA sequence in human PC3 cells after 24 hrs by ELISA; format: cell-based; conditions: PC-3
Transcription factor p65 (Homo sapiens), sequence (Q04206 whole entry): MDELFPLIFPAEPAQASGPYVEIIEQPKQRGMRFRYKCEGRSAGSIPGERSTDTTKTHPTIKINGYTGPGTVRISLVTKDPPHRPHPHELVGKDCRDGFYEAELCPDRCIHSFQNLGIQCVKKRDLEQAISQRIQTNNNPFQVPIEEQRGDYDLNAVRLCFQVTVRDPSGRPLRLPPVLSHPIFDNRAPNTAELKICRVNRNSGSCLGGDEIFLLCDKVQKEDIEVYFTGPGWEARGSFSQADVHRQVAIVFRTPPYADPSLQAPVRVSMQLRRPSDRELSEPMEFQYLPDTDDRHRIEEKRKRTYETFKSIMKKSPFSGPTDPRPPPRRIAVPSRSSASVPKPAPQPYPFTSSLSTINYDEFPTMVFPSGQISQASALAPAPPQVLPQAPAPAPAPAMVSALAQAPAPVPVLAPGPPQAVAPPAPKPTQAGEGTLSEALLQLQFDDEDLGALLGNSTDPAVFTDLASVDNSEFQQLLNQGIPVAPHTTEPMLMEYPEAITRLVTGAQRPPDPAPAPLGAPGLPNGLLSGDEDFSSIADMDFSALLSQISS

PC-3 [9] = assay: Cell cycle arrest in human PC3 cells assessed as accumulation at S phase at 10 uM after 24 hrs by propidium iodide staining-based flow cytometric analysis (reference value: 8.5%); format: functional
PC-3 [10] = assay: Cell cycle arrest in human PC3 cells assessed as accumulation at M phase at 10 uM after 24 hrs by propidium iodide staining-based flow cytometric analysis (reference value: 3%); format: functional
[11] = target: Transcription factor p65 (Homo sapiens) (UniProt Q04206); assay: Inhibition of NFkappaB p65 binding to consensus DNA sequence in human PC3 cells after 24 hrs by Western blotting analysis; format: cell-based; conditions: PC-3
[12] = target: Transcription factor p65 (Homo sapiens) (UniProt Q04206); assay: Inhibition of NFkappaB p65 binding to consensus DNA sequence in human PC3 cells at 100 uM after 24 hrs by ELISA relative to control; format: cell-based; conditions: PC-3
PC-3 [13] = assay: Cell cycle arrest in human PC3 cells assessed as accumulation at G0/G1 phase at 1 uM after 24 hrs by propidium iodide staining-based flow cytometric analysis (reference value: 68.2%); format: functional
PC-3 [14] = assay: Cell cycle arrest in human PC3 cells assessed as accumulation at sub-G1 phase at 1 uM after 24 hrs by propidium iodide staining-based flow cytometric analysis (reference value: 13.1%); format: functional
PC-3 [15] = assay: Cell cycle arrest in human PC3 cells assessed as accumulation at sub-G1 phase at 10 uM after 24 hrs by propidium iodide staining-based flow cytometric analysis (reference value: 13.1%); format: functional
PC-3 [16] = assay: Cell cycle arrest in human PC3 cells assessed as accumulation at sub-G1 phase after 24 hrs by propidium iodide staining-based flow cytometric analysis; format: functional
PC-3 [17] = assay: Cell cycle arrest in human PC3 cells assessed as accumulation at M phase at 1 uM after 24 hrs by propidium iodide staining-based flow cytometric analysis (reference value: 3%); format: functional
PC-3 [18] = assay: Cell cycle arrest in human PC3 cells assessed as accumulation at S phase at 1 uM after 24 hrs by propidium iodide staining-based flow cytometric analysis (reference value: 8.5%); format: functional
[19] = target: Transcription factor p65 (Homo sapiens) (UniProt Q04206); assay: Inhibition of NFkappaB p65 binding to consensus DNA sequence in human PC3 cells at 100 uM after 24 hrs by Western blotting analysis relative to control; format: cell-based; conditions: PC-3

Structure (SMILES) | IC50 [1] [µM] | IC50 (A549) [µM] | IC50 (HeLa) [µM] | IC50 (THP-1) [µM] | IC50 (MCF7) [µM] | IC50 (PC-3 [2]) [µM] | also measured
CO[C@@]12[C@H](COC(N)=O)C3=C(C(=O)C(C)=C(N)C3=O)N1C[C@@H]1N[C@@H]12 [MITOMYCIN] | 0.5 | – | – | – | – | – | –
C=C1C(=O)O[C@@H]2[C@H]1CC[C@H](C)[C@]1(O)[C@@H](n3cc(CCc4ccccc4)nn3)CC(=O)[C@@]21C | 4.3 | 5.8 | 16 | 100 | 16 | – | –
C=C1C(=O)O[C@@H]2[C@H]1CC[C@H](C)[C@]1(O)[C@@H](n3cc(CNc4ccccc4OC)nn3)CC(=O)[C@@]21C | 15 | 23 | 28 | 100 | 28 | – | –
C=C1C(=O)O[C@@H]2[C@H]1CC[C@H](C)[C@]1(O)[C@@H](n3cc(COc4ccc(C(F)(F)F)cc4)nn3)CC(=O)[C@@]21C | 100 | 3.8 | 3.5 | 48 | 13 | 6.4 | –
C=C1C(=O)O[C@@H]2[C@H]1CC[C@H](C)[C@]1(O)[C@@H](n3cc(COc4ccc5ccccc5c4)nn3)CC(=O)[C@@]21C | 20 | 9 | 7.3 | 25 | 24 | 3.6 | –
C=C1C(=O)O[C@@H]2[C@H]1CC[C@H](C)[C@]1(O)[C@@H](n3cc(COc4ccc(Cl)cc4)nn3)CC(=O)[C@@]21C | 27 | 4.1 | 3.6 | 12 | 7 | 5.2 | –
CC[C@@]1(O)C(=O)OCc2c1cc1n(c2=O)Cc2cc3ccccc3nc2-1 [CAMPTOTHECIN] | – | – | – | – | – | – | Activity (PC-3 [3]): 4.94%; Activity (PC-3 [4]): 30.17%; Activity (PC-3 [5]): 4.76%; Activity (PC-3 [6]): 60.44%
C=C1C(=O)O[C@@H]2[C@H]1CC[C@H](C)[C@]1(O)[C@@H](n3cc(CNc4ccc(F)cc4)nn3)CC(=O)[C@@]21C | 6.5 | 100 | 15 | 100 | 15 | – | –
C=C1C(=O)O[C@@H]2[C@H]1CC[C@H](C)[C@]1(O)[C@@H](n3cc(COc4ccccc4Cl)nn3)CC(=O)[C@@]21C | 5.3 | 4.2 | 3.6 | 3.8 | 9.7 | 3.1 | Activity (PC-3 [3]): 3.5%; Activity (PC-3 [4]): 51.2%; Activity (PC-3 [7]): 50.7%; inhibition [8]: Dose-dependent effect; Activity (PC-3 [9]): 3%; Activity (PC-3 [10]): 1%; inhibition [11]: Dose-dependent effect; inhibition [12]: 80%; Activity (PC-3 [13]): 52.3%; Activity (PC-3 [14]): 38.8%; Activity (PC-3 [15]): 49.2%; Activity (PC-3 [5]): 1.9%; Activity (PC-3 [16]): Dose-dependent effect; Activity (PC-3 [6]): 39.9%; Activity (PC-3 [17]): 1%; Activity (PC-3 [18]): 4.2%; inhibition [19]: 80%
C=C1C(=O)O[C@@H]2[C@H]1CC[C@H](C)[C@]1(O)[C@@H](n3cc(CNc4ccccc4F)nn3)CC(=O)[C@@]21C | 100 | 34 | 3.7 | – | 5.1 | 3.3 | –
C=C1C(=O)O[C@@H]2[C@H]1CC[C@H](C)[C@]1(O)[C@@H](n3cc(COc4ccccc4F)nn3)CC(=O)[C@@]21C | 23 | 6.3 | 3.9 | 25 | 4.3 | 4.3 | –
C=C1C(=O)O[C@@H]2[C@H]1CC[C@H](C)[C@]1(O)[C@@H](n3cc(COc4ccccc4Br)nn3)CC(=O)[C@@]21C | 12 | 8.8 | 4.8 | 19 | 3.4 | 5.6 | –
C=C1C(=O)O[C@@H]2[C@H]1CC[C@H](C)[C@]1(O)[C@@H](n3cc(CNc4ccc(COC(F)(F)F)cc4)nn3)CC(=O)[C@@]21C | 100 | 23 | 17 | – | 17 | – | –
C=C1C(=O)O[C@@H]2[C@H]1CC[C@H](C)[C@]1(O)[C@@H](n3cc(CNc4ccccc4C)nn3)CC(=O)[C@@]21C | 8.5 | 23 | 3.9 | 17 | 15 | 4.6 | –
C=C1C(=O)O[C@@H]2[C@H]1CC[C@H](C)[C@]1(O)[C@@H](n3cc(COc4ccccc4C)nn3)CC(=O)[C@@]21C | 5.5 | 6.2 | 8.4 | 3.8 | 3.7 | 10 | –
C=C1C(=O)O[C@@H]2[C@H]1CC[C@H](C)[C@]1(O)[C@@H](n3cc(COc4ccc(Br)cc4)nn3)CC(=O)[C@@]21C | 48 | 14 | 6.5 | 10 | 16 | 4.7 | –
C=C1C(=O)O[C@@H]2[C@H]1CC[C@H](C)[C@]1(O)[C@@H](n3cc(COc4ccc(C(C)C)cc4C)nn3)CC(=O)[C@@]21C | 45 | 21 | 6.8 | 33 | 32 | 7.5 | –
C=C1C(=O)O[C@@H]2[C@H]1CC[C@H](C)[C@]1(O)[C@@H](n3cc(COc4ccc(C)cc4)nn3)CC(=O)[C@@]21C | 39 | 21 | 100 | 26 | 4.2 | 7.6 | –
C=C1C(=O)O[C@@H]2[C@H]1CC[C@H](C)[C@]1(O)[C@@H](n3cc(CCC)nn3)CC(=O)[C@@]21C | 5.5 | 12 | 8.4 | – | 14 | 100 | –
O=c1[nH]cc(F)c(=O)[nH]1 [FLUOROURACIL] | 4.5 | – | 4.9 | – | – | – | –
C=C1C(=O)O[C@@H]2[C@H]1CC[C@H](C)[C@]1(O)C=CC(=O)[C@@]21C [PARTHENIN] | 35.3 | 37.6 | – | 46.2 | 40.2 | 43.1 | –
COc1cccc2c1C(=O)c1c(O)c3c(c(O)c1C2=O)C[C@@](O)(C(=O)CO)C[C@@H]3O[C@H]1C[C@H](N)[C@H](O)[C@H](C)O1 [DOXORUBICIN] | – | – | – | – | 0.5 | – | –
C=C1C(=O)O[C@@H]2[C@H]1CC[C@H](C)[C@]1(O)[C@@H](n3cc(CNc4ccccc4Br)nn3)CC(=O)[C@@]21C | 20 | 100 | 4.8 | 100 | 4.2 | – | –
C=C1C(=O)O[C@@H]2[C@H]1CC[C@H](C)[C@]1(O)[C@@H](n3cc(CNn4ccc5cc(Br)ccc54)nn3)CC(=O)[C@@]21C | 26 | 100 | 7.2 | – | 4.5 | – | –
